This is an account of results in US4202891A, “15-Oxygenated sterol compounds and the use of such compounds to inhibit the biosynthesis of sterols” (priority 1977, dated 1980).

Test [1] has as its system HMG-CoA reductase. Put plainly: Reduction of the activity of HMG-CoA reductase in L cell cultures. It counts as cell-based, mouse. The settings on record: read-out: Concentrations Required for 50% Reduction of the Activity of HMG-CoA Reductase. The procedure: (§1) The primary liver cell cultures were prepared from 16-day-old (C57BL/6J fetuses and grown in chemically defined medium (serum-free) as described in the above cited publications. The L cells, a subline of NCTC clone 929 mouse fibroblasts, were grown in chemically defined medium (serum-free) as described in the publications. These L cells are transformed fibroblasts which are regarded as malignant since they will grow as tumors if injected into the mouse strain from which they were initially obtained.
(§2) The preparation of steroid-containing media, procedures for assays of the conversion of [1-^14 C]acetate into digitonin-precipitable sterols, fatty acids, and CO2 and methods for the measurement of DNA, protein, and HMG-CoA reductase were as described in the published articles. L cell cultures were preincubated with the 15-oxygenated sterols and their derivatives for 4 hours, then [1-^14 C]acetate was added at a concentration of 4 μmoles per ml (4 μCi per ml); or the L cell cultures were incubated for 5 hours with the 15-oxygenated sterols before they were harvested for determination of microsomal HMG-CoA reductase activity.
(§3) A number of the 15-oxygenated sterols have also been tested with respect to their effects on the activity and/or levels of the enzyme HMG-CoA reductase (3-hydroxy-3-methylglutaryl coenzyme A reductase) in the L cells and in the liver cells. As noted previously, this enzyme catalyzes the reduction of 3-hydroxy-3-methylglutaryl coenzyme A to yield mevalonic acid, an essential intermediate in the biosynthesis of sterols and of a number of other essential compounds in cells.
(§4) Using the technique described by Kandutsch and Chen in the article cited in the previous example, the concentrations of various 15-oxygenated sterols required to reduce the levels of activity of HMG-CoA reductase by 50% was determined in the cells of the L cells in culture and of the primary cultures of liver cells.

In test [2] the test system is sterol biosynthesis in L cells. Put plainly: Inhibition of sterol synthesis from [1-14C]acetate in L cell cultures. The settings on record: Mus musculus, read-out: Concentrations Required for 50% Inhibition of Sterol Synthesis. Format: cell-based. The method, then:
(§5) The effect of various 15-oxygenated sterols on sterol biosynthesis in L cells and in primary cultures of mouse liver cells was tested essentially under conditions described in detail previously [A. A. Kandutsch and H. W. Chen, J. Biol. Chem., Vol. 248, pp. 8408-8417 (1973) and A. A. Kandutsch and H. W. Chen, J. Biol. Chem., Vol. 249, pp. 6057-6061 (1974`)].
as §1, §2
(§6) The test compounds were tested over a range of at least 4 concentrations and the assay was repeated until the concentration of test compound required to produce 50% inhibition was located on the steeply declining portion of an activity vs. concentration plot. To diminish any possible effects of generalized differences in cellular metabolism, the rates of sterol synthesis from [1-^14 C]acetate were calculated as the ratio of [^14 C]sterols to [^14 C]fatty acids as described in the two cited articles by Kandutsch and Chen.

The subject of test [3] is HMG-CoA reductase. Put plainly: Reduction of the activity of HMG-CoA reductase in primary cultures of liver cells. The settings on record: read-out: Concentrations Required for 50% Reduction of the Activity of HMG-CoA Reductase. It counts as cell-based, mouse. The method, then: as §1, §2
(§7) Conditions for incubating the 15-oxygenated sterols or their derivatives with liver cell cultures were similar to those described for L cell cultures except that the cultures were incubated with the test compounds for 12 hours before labeled acetate was added or before they were harvested for enzyme assay.
as §3, §4

Test [4] concerns sterol biosynthesis in primary cultures of mouse liver cells. Briefly: Inhibition of sterol synthesis from [1-14C]acetate in primary cultures of liver cells. It counts as cell-based. Particulars: read-out: Concentrations Required for 50% Inhibition of Sterol Synthesis. The procedure: as §5, §1, §2, §7, §6
The subject of test [5] is sterol biosynthesis in L cells. The settings on record: L cell cultures; as reported by Kandutsch and Chen; read-out: Concentrations Required for 50% Inhibition of Sterol Synthesis; cited from earlier work.
For test [6], the system named is sterol biosynthesis in primary cultures of mouse liver cells. Particulars: primary cultures of liver cells, cited from earlier work; for IC50: as reported by Kandutsch and Chen, read-out: Concentrations Required for 50% Inhibition of Sterol Synthesis.

SMILES strings stand for the structures. Read-outs that look alike come from different tables or passages of the source.

On to `CC[C@]12C3=CC[C@H]4C[C@@H](OC(C)=O)CC[C@]4(C)[C@H]3CC[C@]1(C)[C@@H]([C@H](C)CCCC(C)C)C[C@H]2O` [3β-acetoxy-14α-ethyl-5α-cholest-7-en-15β-ol], for which the IC50 in the test with HMG-CoA reductase [1] is 0.13 µM; in test [2], 0.03 µM.

`CO[C@H]1CC[C@@]2(C)[C@@H](CC=C3[C@@H]2CC[C@]2(C)[C@@H]([C@H](C)CCCC(C)C)C[C@H](O)[C@@]32C)C1` [3β-methoxy-14α-methyl-5α-cholest-7-en-15α-ol]: the IC50 came to 3 µM in the test on HMG-CoA reductase [1], 1.6 µM in the test with HMG-CoA reductase [3], 0.3 µM in test [2] and 1.9 µM in test [4].

Take `CO[C@H]1CC[C@@]2(C)[C@@H](CC=C3[C@@H]2CC[C@]2(C)[C@@H]([C@H](C)CCCC(C)C)C[C@@H](O)[C@@]32C)C1` [3β-methoxy-14α-methyl-5α-cholest-7-en-15β-ol]: the IC50 turned out to be 3.7 µM in the test with HMG-CoA reductase [1], 3.5 µM in the test on HMG-CoA reductase [3], 1.4 µM in test [2] and 3.5 µM in test [4].

As to `CC(C)CCC[C@@H](C)[C@H]1C[C@H](O)[C@@H]2C3=CC[C@H]4C[C@@H](O)CC[C@]4(C)[C@H]3CC[C@]12C` [5α,14β-Cholest-7-en-3β,15α-diol, 5α,14β-cholest-7-en-3β,15α-diol], the IC50 stood at 6.7 µM with HMG-CoA reductase [1], 12.5 µM in the test with HMG-CoA reductase [3], 3.2 µM in test [2] and 7.5 µM in test [4].

For the compound `CC(C)CCC[C@@H](C)[C@H]1C[C@@H](O)[C@@H]2C3=CC[C@H]4C[C@@H](O)CC[C@]4(C)[C@H]3CC[C@]12C` [5α,14β-Cholest-7-en-3β,15β-diol, 5α,14β-cholest-7-en-3β,15β-diol], the IC50 is 4.5 µM with HMG-CoA reductase [1], 6 µM in the test with HMG-CoA reductase [3], 1 µM in test [2] and 2.5 µM in test [4].

`CC(C)CCC[C@@H](C)[C@H]1C[C@@H](O)C2=C3CC[C@H]4C[C@@H](O)CC[C@]4(C)[C@H]3CC[C@@]21C` [5α-Cholest-8(14)-en-3β,15β-diol]: the IC50 with HMG-CoA reductase [1] came out at 2.5 µM; with HMG-CoA reductase [3], 16.1 µM; in test [2], 1.8 µM; in test [4], 10.3 µM.

Turning to `CC(C)CCC[C@@H](C)[C@H]1CC(O)C2=C3C(O)C[C@H]4C[C@@H](O)CC[C@]4(C)[C@H]3CC[C@@]21C` (stereo partly drawn) [5α-cholest-8(14)-en-3β,7ε,15ε-triol], the IC50 in the test on HMG-CoA reductase [1] came out at 1.9 µM; with HMG-CoA reductase [3] it was 18 µM; in test [2] (L cell cultures), 5 µM; in test [4] (primary cultures of liver cells), 4.8 µM.

Regarding `CC[C@@]12C(=O)C[C@H]([C@H](C)CCCC(C)C)[C@@]1(C)CC[C@H]1C2=CC[C@H]2C[C@@H](O)CC[C@@]21C` [14α-Ethyl-5α-cholest-7-en-3β-ol-15-one, 14α-ethyl-5α-cholest-7-en-3β-ol-15-one], the IC50 was 1.9 µM with HMG-CoA reductase [1], 2.1 µM with HMG-CoA reductase [3], 0.3 µM in test [2] and 2.1 µM in test [4].

`CC(C)CCC[C@@H](C)[C@H]1C[C@H](O)[C@@]2(C)C3=CC[C@H]4C[C@@H](O)CC[C@]4(C)[C@H]3CC[C@]12C` [14α-Methyl-5α-cholest-7-en-3β,15α-diol]: the IC50 in the test on HMG-CoA reductase [1] stood at 0.3 µM; with HMG-CoA reductase [3] it was 2 µM; in test [2], 0.3 µM; in test [4] it was 1.8 µM.

For `CC(C)CCC[C@@H](C)[C@H]1C[C@@H](O)[C@@]2(C)C3=CC[C@H]4C[C@@H](O)CC[C@]4(C)[C@H]3CC[C@]12C` [14α-Methyl-5α-cholest-7-en-3β,15β-diol], the IC50 came to 1.2 µM in the test with HMG-CoA reductase [1], 4.3 µM in the test with HMG-CoA reductase [3] and 0.5 µM in test [2].

`CC(C)CCC[C@@H](C)[C@H]1CC(=O)[C@@]2(C)C3=CC[C@H]4C[C@@H](O)CC[C@]4(C)[C@H]3CC[C@]12C` [14α-Methyl-5α-cholest-7-en-3β-ol-15-one, 14α-methyl-5α-cholest-7-en-3β-ol-15-one]: the IC50 with HMG-CoA reductase [1] came out at 0.3 µM; in the test on HMG-CoA reductase [3], 2.8 µM; in test [2] it was 0.3 µM; in test [4], 4.5 µM.

In the case of `CC(C)CCC(O)[C@@H](C)[C@H]1CC[C@H]2[C@@H]3CC=C4C[C@@H](O)CC[C@]4(C)[C@H]3CC[C@]12C` (stereo partly drawn) [Cholest-5-en-3β,22α-diol], the IC50 is 3.7 µM in test [5] and 6 µM in test [6].

For `CC(C)CCC(=O)[C@@H](C)[C@H]1CC[C@H]2[C@@H]3CC=C4C[C@@H](O)CC[C@]4(C)[C@H]3CC[C@]12C` [Cholest-5-en-3β-ol-22-one], the IC50 in test [5] was 1.7 µM; in test [6] it was 37 µM.

On to `CC(C)CCC[C@@H](C)[C@H]1CC[C@H]2[C@@H]3CC=C4C[C@@H](O)CC[C@]4(C)[C@H]3CC[C@]12C` [Cholesterol], for which, in test [6], the IC50 is greater than 5200 µM and the “activity in the liver cell culture system (in words)” value is “inactive”.
